Each structure is given as a SMILES string.

The text below walks through data of patent publication US11717635B2, “Argon combined with thrombectomy in the event of ischaemic stroke” (L'Air Liquide, Société Anonyme pour l'Etude et …, priority 2019, dated 2023).

The subject of this test is transient focal cerebral ischaemia (occlusion of the middle cerebral artery). Kind of test: Transient focal cerebral ischaemia (microcoil occlusion of the right MCA, 90 min, then reperfusion mimicking mechanical thrombectomy) with MRI and behavioural follow-up. The format is in vivo, rhesus macaques. The method, then: The primates used in the study are rhesus macaques, in which it has been possible to obtain a stable and reproducible model of reversible ischaemia mimicking an ischaemic stroke and its reperfusion by mechanical thrombectomy, as explained below. After approval of the project by the ethics committee for animal experimentation, 6 rhesus macaques were randomized in 2 groups of 3 animals per group, namely: • a group treated with argon or “argon group” inhaling, for 90 min in total, a binary gas mixture formed of 60% argon and 40% oxygen (vol. %), the inhalation of the gas beginning 30 min after the start of the ischaemia and extending during and after the thrombectomy procedure (with or without thrombolysis); • a “control group” inhaling a gas mixture formed of 60% nitrogen and 40% oxygen (vol. %). These groups are subjected to a model of transient focal cerebral ischaemia without craniectomy consisting of an occlusion under anaesthesia of the middle cerebral artery (MCA) by deploying a rigid microspring, called a “microcoil”, until the arterial blood flow stops, in the M2 segment of the right MCA. After 90 min of ischaemia, which is the usual average time between the first signs of an ischaemic stroke and the cerebral reperfusion, the “microcoil” was removed and the revascularization confirmed by arteriography. This procedure mimics a blood clot and its removal by mechanical thrombectomy. All the animals are monitored by high-resolution MRI (Prisma 3 Tesla, Siemens) several days before and directly after the ischaemia (3[…], TOF) in order to quantify the cerebral volume made ischaemic (i.e. restriction of the apparent diffusion coefficient) and the cerebral oedema ([…]). Moreover, the functional recovery was monitored in the acute phase in 1 control animal and over the long-term in two animals of the argon group, that is to say over the course of 3 months post-ischaemia. The evaluations were carried out in terms of the clinical and functional neurological recovery with behavioural tests evaluating their fine sensory-motor performances.

Turning to `[Ar]` [argon], the lesion volume result (argon group (60% argon/40% oxygen, 90 min), control group about 5 ml) was “about 1 ml”. Also, for the setting “argon group animals monitored 3 months post-ischaemia”, the “performances in the behavioural tests (fine sensory-motor) post-ischaemia compared with baseline” value is listed as “not significantly impaired”. In addition, under “argon group, rupture observed in the control group”, the “blood-brain barrier state on MRI images” value was “preserved”. Also, the “decrease in the volume of cerebral oedema compared to the control group” value (inhaled 60% argon/40% oxygen for 90 min, begun 30 min after start of ischaemia, MRI T2-FLAIR, P<0.05 vs control) came out at 85 % reduction. Also, the “decrease in the cerebral volume infarcted compared to the control group” value (inhaled 60% argon/40% oxygen for 90 min, begun 30 min after start of ischaemia, MRI, P<0.05 vs 60% nitrogen/40% oxygen control) amounted to 83 % reduction. Under “two animals of the argon group monitored 3 months post-ischaemia, deficit = left leg paresis”, the “clinical and functional neurological recovery” value was “rapid recovery with only a minor and transient neurological deficit”.
